Where two headings read alike, the source gives them in different places.
Molecular target: T1, HCV polymerase (NS5B570n-Con1) (Hepatitis C virus genotype 1b, UniProt Q9WMX2)
T1 construct: contains a 21 amino acid deletion at the C-terminus relative to the full-length HCV polymerase; 6-histidine (N); made in house; host or cells: E. coli strain BL21(DE) pLysS (pET17b)
Assay: biochemical
Parameters: species or system HCV Con1 strain

[1] = IC50 HCV NS5B RNA Polymerase Assay, values without asterisk, 20 nM NS5B570n-Con1 enzyme, 20 nM cIRES RNA template
[2] = IC50 HCV NS5B RNA Polymerase Assay (values with asterisk), values with asterisk: cIRES RNA template, 3 nM NS5B570n-Con1
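Note: recombinant His-tagged enzyme from E. coli, radiolabeled nucleotide incorporation into acid-insoluble RNA read by scintillation after filtration, no-enzyme background subtracted, activity relative to positive control.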

Structure (SMILES): COc1c(/C=C/c2ccc(N)nn2)cc(-c2ccc[nH]c2=O)cc1C(C)(C)C [I-181]
- IC50 [1]: 8 nM

Structure (SMILES): COc1c(NC(=O)c2ccc(N)cc2OCCN(C)C)cc(-c2ccc[nH]c2=O)cc1C(C)(C)C [I-284]
- IC50 [1]: 6270 nM

Structure (SMILES): COc1c(/C=C/c2ccc(NS(C)(=O)=O)cc2C(C)(C)O)cc(-c2ccc[nH]c2=O)cc1C(C)(C)C [I-204, N-[4-{(E)-2-[3-tert-Butyl-2-methoxy-5-(2-oxo-1,2-dihydro-pyridin-3-yl)-phenyl]-vinyl}-3-(1-hydroxy-1-methyl-ethyl)-phenyl]-methanesulfonamide]
- IC50 [2]: 1 nM

Structure (SMILES): COc1c(NC(=O)c2ccc(N)cc2F)cc(-c2ccc[nH]c2=O)cc1C(C)(C)C [I-280]
- IC50 [1]: 10 nM

Structure (SMILES): COCCOc1c(/C=C/c2ccc(NS(C)(=O)=O)cc2)cc(-c2ccc[nH]c2=O)cc1C(C)(C)C [I-250]
- IC50 [2]: 23 nM

Structure (SMILES): CCS(=O)(=O)Nc1ccc(/C=C/c2cc(-c3cc(F)c[nH]c3=O)cc(C(C)(C)C)c2OC)cc1 [I-228, Ethanesulfonic acid (4-{(E)-2-[3-tert-butyl-5-(5-fluoro-2-oxo-1,2-dihydro-pyridin-3-yl)-2-methoxy-phenyl]-vinyl}-phenyl)-amide]
- IC50 [2]: 5 nM

Structure (SMILES): COc1c(/C=C/c2ccc(NS(C)(=O)=O)nn2)cc(-c2cc(F)c[nH]c2=O)cc1C(C)(C)C [I-184]
- IC50 (read-out: IC50 HCV NS5B RNA Polymerase Assay, values without asterisk, 20 nM NS5B570n-Con1 enzyme, 20 nM cIRES RNA template): 4 nM

Structure (SMILES): COc1c(/C=C/c2ccc(NS(C)(=O)=O)cc2CN2CCOC2=O)cc(-c2cc(F)c[nH]c2=O)cc1C(C)(C)C [I-220, N-[4-{(E)-2-[3-tert-Butyl-5-(5-fluoro-2-oxo-1,2-dihydro-pyridin-3-yl)-2-methoxy-phenyl]-vinyl}-3-(2-oxo-oxazolidin-3-ylmethyl)-phenyl]-methanesulfonamide]
- IC50 [2]: 5 nM

Structure (SMILES): CS(=O)(=O)Nc1ccc(/C=C/c2cc(-c3ccc[nH]c3=O)cc(C3(Cl)CC3)c2)cc1 [I-274, N-(4-{(E)-2-[3-(1-Chloro-cyclopropyl)-5-(2-oxo-1,2-dihydro-pyridin-3-yl)-phenyl]-vinyl}-phenyl)-methanesulfonamide]
- IC50 [2]: 2 nM

Structure (SMILES): COc1c(/C=C/c2ccc(NS(C)(=O)=O)cc2CNC(C)=O)cc(-c2ccc[nH]c2=O)cc1C(C)(C)C [I-160, N-(2-{(E)-2-[3-tert-Butyl-2-methoxy-5-(2-oxo-1,2-dihydro-pyridin-3-yl)-phenyl]-vinyl}-5-methanesulfonylamino-benzyl)-acetamide]
- IC50 [1]: 4 nM

Structure (SMILES): CCOc1nc(-c2cc(-c3ccc[nH]c3=O)cc(C(C)(C)C)c2OC)cc2ccc(NS(C)(=O)=O)cc12 [II-9, N-{3-[3-tert-Butyl-2-methoxy-5-(2-oxo-1,2-dihydro-pyridin-3-yl)-phenyl]-1-ethoxy-isoquinolin-7-yl}-methanesulfonamide]
- IC50 [1]: 3 nM

Structure (SMILES): CC(C)(C)c1cc(/C=C/c2ccc(NS(C)(=O)=O)c(F)c2)cc(-c2ccc[nH]c2=O)c1 [I-146, N-(4-{(E)-2-[3-tert-Butyl-5-(2-oxo-1,2-dihydro-pyridin-3-yl)-phenyl]-vinyl}-2-fluoro-phenyl)-methanesulfonamide]
- IC50 [1]: 3 nM

Structure (SMILES): COc1c(/C=C/c2ccc(NS(C)(=O)=O)cc2)cc(-c2cc(Cl)c[nH]c2=O)cc1C1CC1 [I-292, N-(4-{(E)-2-[5-(5-Chloro-2-oxo-1,2-dihydro-pyridin-3-yl)-3-cyclopropyl-2-methoxy-phenyl]-vinyl}-phenyl)-methanesulfonamide]
- IC50 [2]: 29 nM

Structure (SMILES): COc1c(/C=C/c2ccc(NS(C)(=O)=O)nc2)cc(-c2cc(F)c[nH]c2=O)cc1C(C)(C)C [I-175]
- IC50 [1]: 6 nM

Structure (SMILES): CC(C)(C)c1cc(CCc2ccc(NS(C)(=O)=O)cn2)c(O)c(-c2ccc[nH]c2=O)c1 [I-214, N-(6-{2-[5-tert-butyl-2-hydroxy-3-(2-oxo-1,2-dihydro-pyridin-3-yl)-phenyl]-ethyl}-pyridin-3-yl)-methanesulfonamide]
- IC50 [2]: 2 nM
- IC50 [1]: 5 nM

Structure (SMILES): COCCNc1ccc(C(=O)Nc2cc(-c3ccc[nH]c3=O)cc(C(C)(C)C)c2OC)cc1 [I-257, N-[3-tert-Butyl-2-methoxy-5-(2-oxo-1,2-dihydro-pyridin-3-yl)-phenyl]-4-(2-methoxy-ethylamino)-benzamide]
- IC50 [1]: 184 nM

Structure (SMILES): COc1c(C(=O)NCCc2ccccc2)cc(-c2ccc[nH]c2=O)cc1C(C)(C)C [I-34]
- IC50 [1]: 1700 nM

Structure (SMILES): COc1c(/C=C/c2ccc(NS(C)(=O)=O)cc2)cc(-c2ccc[nH]c2=O)cc1C(C)(O)C(F)(F)F (stereo not drawn) [I-180]
- IC50 [1]: 5 nM

Structure (SMILES): CC(C)(CO)c1cc(/C=C/c2ccc(NS(C)(=O)=O)cc2)cc(-c2ccc[nH]c2=O)c1 [I-272, N-(4-{(E)-2-[3-(2-Hydroxy-1,1-dimethyl-ethyl)-5-(2-oxo-1,2-dihydro-pyridin-3-yl)-phenyl]-vinyl}-phenyl)-methanesulfonamide]
- IC50 [2]: 6 nM

Structure (SMILES): COc1c(/C=C/c2ccccn2)cc(-c2ccc[nH]c2=O)cc1C(C)(C)C [I-241, 3-[3-tert-Butyl-4-methoxy-5-((E)-2-pyridin-2-yl-vinyl)-phenyl]-1H-pyridin-2-one]
- IC50 [2]: 3 nM

Structure (SMILES): COc1c(CC(CN(C)C)c2ccc(NS(C)(=O)=O)cc2)cc(-c2ccc[nH]c2=O)cc1C(C)(C)C (stereo not drawn) [I-192, N-(4-{2-[3-tert-Butyl-2-methoxy-5-(2-oxo-1,2-dihydro-pyridin-3-yl)-phenyl]-1-dimethylaminomethyl-ethyl}-phenyl)-methanesulfonamide]
- IC50 [1]: 28 nM

Structure (SMILES): COc1c(NC(=O)c2ccc(O)cc2F)cc(-c2ccc[nH]c2=O)cc1C(C)(C)C [I-252, N-[3-tert-Butyl-2-methoxy-5-(2-oxo-1,2-dihydro-pyridin-3-yl)-phenyl]-2-fluoro-4-hydroxy-benzamide]
- IC50 [1]: 38 nM

Structure (SMILES): COc1c(C(=O)NC2CCN(C)CC2)cc(-c2ccc[nH]c2=O)cc1C(C)(C)C [I-91]
- IC50 [1]: 1480 nM

Structure (SMILES): COc1c(NC(=O)c2ccc(NCC(F)(F)F)cc2)cc(-c2ccc[nH]c2=O)cc1C(C)(C)C [I-253, N-[3-tert-Butyl-2-methoxy-5-(2-oxo-1,2-dihydro-pyridin-3-yl)-phenyl]-4-(2,2,2-trifluoro-ethylamino)-benzamide]
- IC50 [1]: 2 nM

Structure (SMILES): Cc1cc(-c2ccc(CO)[nH]c2=O)cc(C(C)(C)C)c1 [I-12]
- IC50 [1]: 892 nM

Structure (SMILES): CN(C(=O)c1ccc(NS(C)(=O)=O)cc1)c1cc(-c2ccc[nH]c2=O)cc(C(C)(C)C)c1 [I-293, N-[3-tert-Butyl-5-(2-oxo-1,2-dihydro-pyridin-3-yl)-phenyl]-4-methanesulfonylamino-N-methyl-benzamide]
- IC50 [1]: 7 nM

Structure (SMILES): COc1c(C(=O)NCc2ccccc2)cc(-c2ccc[nH]c2=O)cc1C(C)(C)C [I-37]
- IC50 [1]: 1010 nM

Structure (SMILES): COc1c(/C=C/c2ccc(NS(C)(=O)=O)cc2CN2CCOCC2)cc(-c2cc(F)c[nH]c2=O)cc1C(C)(C)C [I-222, N-(4-{(E)-2-[3-tert-Butyl-5-(5-fluoro-2-oxo-1,2-dihydro-pyridin-3-yl)-2-methoxy-phenyl]-vinyl}-3-morpholin-4-ylmethyl-phenyl)-methanesulfonamide]
- IC50 [2]: 1 nM

Structure (SMILES): COc1c(/C=C/c2ccc(NS(=O)(=O)CCN3CCOCC3)cc2)cc(-c2cc(F)c[nH]c2=O)cc1C(C)(C)C [I-233]
- IC50 [2]: 1 nM

Structure (SMILES): CCc1ccc(-c2cc(C(C)(C)C)ccc2OC)c(=O)[nH]1 [I-105, 3-(5-tert-Butyl-2-methoxy-phenyl)-6-ethyl-1H-pyridin-2-one]
- IC50 [1]: 6350 nM

Structure (SMILES): COc1c(CCc2ccc(NS(C)(=O)=O)cc2)cc(-c2cc(Cl)c[nH]c2=O)cc1C(C)(C)C [I-95, N-(4-{2-[3-tert-Butyl-5-(5-chloro-2-oxo-1,2-dihydro-pyridin-3-yl)-2-methoxy-phenyl]-ethyl}-phenyl)-methanesulfonamide]
- IC50 [1]: 17 nM

Structure (SMILES): CS(=O)(=O)Nc1ccc(/C=C/c2cc(-c3ccc[nH]c3=O)cc(C3(F)CCC3)c2)cc1 [I-271, N-(4-{(E)-2-[3-(1-Fluoro-cyclobutyl)-5-(2-oxo-1,2-dihydro-pyridin-3-yl)-phenyl]-vinyl}-phenyl)-methanesulfonamide]
- IC50 [2]: 4 nM

Structure (SMILES): CC(C)(C)c1cc(C#Cc2ccc(NS(C)(=O)=O)cc2F)c(O)c(-c2ccc[nH]c2=O)c1 [I-217, N-{4-[5-tert-Butyl-2-hydroxy-3-(2-oxo-1,2-dihydro-pyridin-3-yl)-phenylethynyl]-3-fluoro-phenyl}-methanesulfonamide]
- IC50 [1]: 69 nM

Structure (SMILES): COc1c(/C=C/c2ccc(NS(C)(=O)=O)nc2)cc(-c2ccc[nH]c2=O)cc1C(C)(C)C [I-172]
- IC50 [1]: 3 nM

Structure (SMILES): COc1c(/C=C/c2ccccc2C(=O)O)cc(-c2ccc[nH]c2=O)cc1C(C)(C)C [I-246, 2-{(E)-2-[3-tert-Butyl-2-methoxy-5-(2-oxo-1,2-dihydro-pyridin-3-yl)-phenyl]-vinyl}-benzoic acid]
- IC50 [2]: 1 nM

Structure (SMILES): COCCNc1ccc(C(=O)Nc2cc(-c3ccc[nH]c3=O)cc(C(C)(C)C)c2OC)cn1 [I-254, N-[3-tert-Butyl-2-methoxy-5-(2-oxo-1,2-dihydro-pyridin-3-yl)-phenyl]-6-(2-methoxy-ethylamino)-nicotinamide]
- IC50 [1]: 141 nM

Structure (SMILES): COc1c(C(=O)Nc2cccc(O)c2C)cc(-c2ccc[nH]c2=O)cc1C(C)(C)C [I-185]
- IC50 [1]: 854 nM

Structure (SMILES): COc1c(/C=C/c2ccc(NS(C)(=O)=O)cc2CN(C)C)cc(-c2cc(F)c[nH]c2=O)cc1C(C)(C)C [I-221, N-(4-{(E)-2-[3-tert-Butyl-5-(5-fluoro-2-oxo-1,2-dihydro-pyridin-3-yl)-2-methoxy-phenyl]-vinyl}-3-dimethylaminomethyl-phenyl)-methanesulfonamide]
- IC50 [2]: 11 nM

Structure (SMILES): COCCN(C(=O)c1cc(-c2ccc[nH]c2=O)cc(C(C)(C)C)c1OC)C1CC1 [I-31]
- IC50 [1]: 2290 nM

Structure (SMILES): COc1c(NC(=O)c2ccc(NC(C)=O)cc2)cc(-c2ccc[nH]c2=O)cc1C(C)(C)C [I-277]
- IC50 [1]: 357 nM

Structure (SMILES): COc1c(/C=C(\CO)c2ccc(NS(C)(=O)=O)cc2)cc(-c2ccc[nH]c2=O)cc1C(C)(C)C [I-149, N-(4-{(Z)-2-[3-tert-Butyl-2-methoxy-5-(2-oxo-1,2-dihydro-pyridin-3-yl)-phenyl]-1-hydroxymethyl-vinyl}-phenyl)-methanesulfonamide]
- IC50 [1]: 26 nM

Source: patent US8273773B2 (priority 2008, dated 2012)
